Assay results taken from EP0308559A2, “Cephalosporins, process for their preparation, pharmaceutical compositions containing them and intermediates” (BEECHAM GROUP PLC, priority 1987, dated 1989).
Structures can show the parent of a compound that is named as a salt.

Columns and labels:
[1] = tested on: Pseudomonas aeruginosa Charlier; test: Minimum Inhibitory Concentration (MIC) by serial dilution in agar; format: cell-based; conditions: 10⁴ colony forming units, incubated overnight at 37°C, lowest concentration to inhibit growth
Method: (§1) Minimum Inhibitory Concentration (MIC) values of compounds of the invention against Enterobacter cloacae P99 and Pseudomonas aeruginosa Charlier were determined by serial dilution in agar. The plates were inoculated with 10⁴ colony forming units and incubated overnight at 37°C. The MIC values recorded in Table 1 were the lowest concentration of antibiotic to inhibit growth. Comparative data for 7β-[2-(3,4-diacetoxyphenyl)-2-[4-ethyl-2,3-dioxopiperazin-1-yl)carbonylamino]-acetamido]-7α-formamido-3-[1-methyl-1H-tetrazol-5-yl) thiomethyl]ceph-3-em-4-carboxylic acid, sodium salt (compound A), disclosed in European Patent Application No.82303821.1 (Publication Number 0 071 395; Example 57), are also given.

[2] = tested on: Enterobacter cloacae P99; test: as above; format: cell-based
Method: as §1

SMILES	MIC [1]	MIC [2]
CCN1CCN(C(=O)NC(C(=O)N[C@]2(NC=O)C(=O)N3C(C(=O)O)=C(CSc4nnnn4C)CS[C@@H]32)c2ccc(OC(C)=O)c(OC(C)=O)c2)C(=O)C1=O (stereo partly drawn) [Compound A, 7β-[2-(3,4-diacetoxyphenyl)-2-[4-ethyl-2,3-dioxopiperazin-1-yl)carbonylamino]acetamido]-7α-formamido-3-[1-methyl-1H-tetrazol-5-yl) thiomethyl]ceph-3-em-4-carboxylic acid, sodium salt, reference compound]	4 µg/mL	8 µg/mL
CCN1CCN(C(=O)N[C@@H](C(=O)N[C@]2(NC=O)C(=O)N3C(C(=O)O)=C(CSc4nnnn4N)CS[C@@H]32)c2ccc(OC(C)=O)c(OC(C)=O)c2)C(=O)C1=O [Example 1, Sodium 3-[(1-Amino-1H-tetrazol-5-yl)thiomethyl]-7β-[D-2-(3,4-diacetoxyphenyl)-2-[(4-ethyl-2,3-dioxopiperazin-1-yl)carbonylamino]acetamido]-7α-formamidoceph-3-em-4-carboxylate]	2 µg/mL	2 µg/mL
CCN1CCN(C(=O)N[C@@H](C(=O)N[C@]2(NC=O)C(=O)N3C(C(=O)O)=C(CSc4nnnn4N)CS[C@@H]32)c2ccc(O)c(O)c2)C(=O)C1=O [Example 2, Sodium 3-[(1-Amino-1H-tetrazol-5-yl)thiomethyl]-7β-[D-2-(3,4-dihydroxyphenyl)-2-[(4-ethyl-2,3-dioxopiperazin-1-yl)carbonylamino]acetamido]-7α-formamidoceph-3-em-4-carboxylate]	2 µg/mL	4 µg/mL
